# From patent US7781580B2, “Stilbene derivatives as new cancer therapeutic agents” (Virginia Commonwealth University, priority 2007, dated 2010)
# Tests used:
# [1] = test system: Hep3B hepatocellular carcinoma cells (xenograft); assay: DCE-MRI tumor vascular perfusion, Hep3B xenograft; format: in vivo, mice; settings: 50 mg/kg intraperitoneally
# Method: Mice with established tumor xenografts were used for this study. […] Tumor and kidney, as the representative normal organ, were marked by arrowheads. […] Mice were then left overnight to wash out gadolinium and treated with stilbene 4a at 50 mg/kg intraperitoneally. 4 hours after stilbene injection, mice were imaged with the same protocol. […] Only a small amount of residual gadolinium was still in the tissues.
# In order to establish that stilbene suppresses tumor perfusion by damaging tumor endothelial cells, we first incubated human vascular endothelial cells with various concentrations of stilbenes in vitro. After 24 hours of incubation, cells were then fixed with 2% paraformaldehyde and stained with anti-tubulin antibody to examine the tubulin disruption and with DAPI to analyze nuclear fragmentation. Dynamic-contrast enhanced magnetic resonance imaging (MRI) scanning was used to investigate tumor perfusion in vivo. Immunodeficient nude mice were first injected with Hep3B hepatocellular carcinoma cells subcutaneously. […] A region of interest (ROI) was chosen from the scan and the MRI signal in the ROI was plotted against time and the initial steepest slope of the curve was calculated to represent the maximal perfusion of the ROI. […] The perfusion rate of the muscle region was normalized and set at 100% and the rate of perfusion in tumor was calculated versus the muscle. […]
# [2] = test system: c-kit positive marrow progenitor cells; assay: bone marrow c-kit-positive progenitor cells: cell cycle and colony forming assay; format: cell-based
# Method: FIG. 16. (a) Effect of stilbenes in normal bone marrow progenitor cells. c-kit-positive bone marrow mononuclear cells were isolated for incubation with stilbenes 4a or 4c at 0.1 or 0.5 […] for 16 hours. Cells were harvested for fixation and PI staining. Cell cycle analysis and quantification of the subG0/1 population were analyzed by FACScan flow cytometry. The percentages of the apoptotic population were indicated. Shown are the representatives of two independent experiments. (b) Effect of stilbenes in HL60 cells as positive control. HL60 cells were treated with stilbenes 4a or 4c in the same medium as the positive control. (c) Colony forming assay of the stilbene-treated c-kit-positive cells. A fraction of the cells in (a) were diluted and plated on methylcellulose medium at various densities. Cells were incubated for 14 days and the grossly visible colonies were counted. […] Isolated bone marrow c-kit-positive progenitor cells were incubated with DMSO or stilbenes 4a or 4c at 0.1 or 0.5 μM for 16 hours and injected into tail veins of CD45 congenic mice lethally irradiated with 1200 cGy. Mice were monitored for survival and lineage-specific donor engraftment by flow cytometry analysis of peripheral blood. The percentage of donor cells in T, B, and granulocytic series of the recipients were studied at 7 and 14 weeks after transplantation. Stilbene treated c-Kit progenitor cells had the same percentage as the DMSO treated control in all series.
# Mouse bone marrow was harvested from femur and tibia of […], subjected to red blood cell lysis, and labeled with anti-c-kit (3C11; CALTAG Laboratories, Burlingame, Calif.) and streptavidin-conjugated microbeads for MACS separation (Miltenyi Biotech, Auburn, Calif.). The c-kit positive marrow progenitor cells were incubated in Iscove's Modified Eagle's Media supplemented with 30% fetal bovine serum, erythropoietin, stem cell factor and interleukin-3 with or without stilbenes 4a or 4c. The ability of long-term proliferation of the c-kit-positive cells was evaluated with colony forming assay. Cells were first treated with DMSO, stilbenes 4a or 4c for 5 h and a fraction of the cells (4000 cells) were plated in the same enriched culture media with methylcellulose for colony forming assays. The grossly visible colonies were counted after 14 days of incubation.
# UCI101 cells = assay: phospho-histone 3B mitotic marker staining; format: cell-based
# Method: (§1) (a) In vitro sensitivity of UCI101 cells toward three potential stilbene prodrugs, 5a-c, was tested in 96-well plates using Alamar Blue™ assays to determine cell growth inhibition. […] (b) 5b induces cell cycle change and apoptosis in UCI101 cells. Cells were incubated with 5b at 1, 3, 10 μM for 16 hours followed by PI staining and flow cytometry analysis. A subG0/1 population, representing apoptotic cells, appeared along with a decrease of the G1/G2 ratio after cells were treated with 3 μM 5b. Higher concentration (10 μM) of 5b completely killed cells, as was the case with stilbene 4a at […]. (c) Cells treated with stilbene 4a and 5b were stained with phospho-histone 3B, a mitotic marker. The positive signals of phospho-histone 3B were shown in green and nuclei were stained with DAPI in blue. […] (d) In vivo efficacy of 5b compared with stilbene 4a. Nude mice were injected with UCI101 ovarian cancer cells and treated with 7 doses of 5b,c or stilbene 4a every 2-3 days. Tumor volume was calculated and plotted against days.
# The in vitro efficacy of these three compounds was tested in UCI101 cells in 96-well plate format and stained with Alamar blue™, The growth suppression was calculated as was done similarly to other test compounds. […] A dose response was then performed with various concentrations of 5b in vitro. […]
# [3] = test system: UCI101 ovarian cancer cells (xenograft); assay: UCI101 xenograft in nude mice; format: in vivo; settings: mouse, in vivo
# Method: as §1
# We next tested whether 5b could be converted into stilbene 4a in circulation. […] Blood was collected at 20, 60 and 240 min after injection for spot check of stilbene 4a level in serum. […] The in vivo efficacy of 5b and 5c was compared to stilbene 4a in a pilot study using 5 mice in each group.
structure (smiles),measurement,setting,value
"COc1cc(/C=C\c2ccc(OC)c(N)c2)cc(OC)c1 [4a, (Z)-5-[2-(3,5-Dimethoxy-phenyl)-vinyl]-2-methoxy-phenylamine]",normal vascular perfusion,[1],without compromising normal vascular perfusion
same,tumor vascular perfusion (gadolinium enhancement),[1]; 4 hours after injection,significantly less gadolinium enhancement
same,toxicity to normal bone marrow progenitor cells versus leukemia cells,[2],much less toxic to normal bone marrow progenitor cells
same,cell cycle of marrow progenitor cells at 0.1 μM,"[2]; 0.1 μM, 16 hours",increased the subG0/1 and G2 population slightly
same,cell cycle of marrow progenitor cells at 0.5 μM,"[2]; 0.5 μM, 16 hours",increased the subG0/1 and G2 population slightly
same,phospho-histone 3B positive cells,UCI101 cells,dramatic increase in positive cells
same,mouse weight,[3],did not show any significant change
